From ChEMBL document CHEMBL5465560, “Selectivity Literature for EUbOPEN Chemogenomic Library” (2024)
Blank lines part the entries; values can stand above or below the compound they belong to.

Columns and labels:
[1] = biological target: Myosin light chain kinase 2, skeletal/cardiac muscle (Homo sapiens) (UniProt Q9H1R3); details: at 10 µM
[2] = biological target: Tyrosine-protein kinase JAK1 (Homo sapiens, UniProt P23458); experiment: Selectivity interaction (Kinase panel (Invitrogen)) EUB0000639a JAK1; details: at 200 nM
[3] = biological target: Serine/threonine-protein kinase 10 (Homo sapiens) (UniProt O94804); experiment: Selectivity interaction (ActivX KiNativ screen (kinase selectivity in THP-1 cell lysates)) EUB0000639a STK10; format: subcellular; details: lysate, at 0.01 µM
[4] = biological target: Fibroblast growth factor receptor 1 (Homo sapiens, UniProt P11362)
[5] = biological target: T1, Interleukin-1 receptor-associated kinase 3 (Homo sapiens) (UniProt Q9Y616); experiment: Selectivity interaction (KinomeScan (DiscoverX)) EUB0000229b IRAK3; details: at 10 µM
T1 sequence (whole entry): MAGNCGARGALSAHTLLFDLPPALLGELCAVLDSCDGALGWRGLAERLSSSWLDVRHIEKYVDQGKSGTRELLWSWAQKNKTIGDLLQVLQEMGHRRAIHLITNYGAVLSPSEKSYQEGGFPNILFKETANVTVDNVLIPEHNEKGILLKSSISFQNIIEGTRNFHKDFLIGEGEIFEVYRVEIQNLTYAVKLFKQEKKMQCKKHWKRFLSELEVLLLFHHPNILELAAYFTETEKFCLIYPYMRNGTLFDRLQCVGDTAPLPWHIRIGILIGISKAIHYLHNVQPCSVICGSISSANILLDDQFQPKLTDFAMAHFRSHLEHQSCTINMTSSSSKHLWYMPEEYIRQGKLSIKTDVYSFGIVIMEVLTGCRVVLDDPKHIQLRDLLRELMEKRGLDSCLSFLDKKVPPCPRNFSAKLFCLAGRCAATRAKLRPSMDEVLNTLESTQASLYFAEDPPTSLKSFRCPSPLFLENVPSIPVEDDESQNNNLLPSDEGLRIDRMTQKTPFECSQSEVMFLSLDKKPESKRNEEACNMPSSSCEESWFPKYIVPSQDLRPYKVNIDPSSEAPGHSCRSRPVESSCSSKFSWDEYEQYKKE

[6] = biological target: Vascular endothelial growth factor receptor 3 (Homo sapiens, UniProt P35916); experiment: Selectivity interaction (KinomeScan (DiscoverX)) EUB0000092b FLT4; details: at 10 µM
[7] = biological target: Death-associated protein kinase 3 (Homo sapiens) (UniProt O43293); experiment: Selectivity interaction (KinomeScan (DiscoverX)) EUB0000655a DAPK3; details: at 10 µM
[8] = biological target: T2, Serine/threonine-protein kinase ULK3 (Homo sapiens) (UniProt Q6PHR2); experiment: Selectivity interaction (ActivX KiNativ screen (ex vivo kinase selectivity in human PBMCs)) EUB0001619a ULK3; format: cell-based; details: PBMC, at 1 µM
T2 sequence (whole entry): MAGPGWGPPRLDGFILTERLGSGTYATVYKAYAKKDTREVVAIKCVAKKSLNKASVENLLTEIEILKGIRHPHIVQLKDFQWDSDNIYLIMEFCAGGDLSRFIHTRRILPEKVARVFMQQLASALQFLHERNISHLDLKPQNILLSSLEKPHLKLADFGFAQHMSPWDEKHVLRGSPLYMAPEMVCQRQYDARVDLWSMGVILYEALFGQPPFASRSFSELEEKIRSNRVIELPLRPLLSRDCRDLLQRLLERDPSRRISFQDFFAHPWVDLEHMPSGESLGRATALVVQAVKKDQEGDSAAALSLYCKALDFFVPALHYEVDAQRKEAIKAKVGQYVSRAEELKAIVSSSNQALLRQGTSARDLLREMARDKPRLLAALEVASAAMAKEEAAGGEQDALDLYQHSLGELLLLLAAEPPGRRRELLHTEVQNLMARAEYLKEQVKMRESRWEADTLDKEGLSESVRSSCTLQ

[9] = biological target: G protein-coupled receptor kinase 6 (Homo sapiens) (UniProt P43250); experiment: Selectivity interaction (SelectScreen profiling (Invitrogen)) EUB0000607a GRK6; details: at 2 µM
[10] = biological target: T3, Histone-lysine N-methyltransferase EHMT2 (Homo sapiens) (UniProt Q96KQ7); experiment: Selectivity interaction (Methyltransferase screen (Scintillation proximity assays)) EUB0000255b EHMT2
T3 sequence (whole entry): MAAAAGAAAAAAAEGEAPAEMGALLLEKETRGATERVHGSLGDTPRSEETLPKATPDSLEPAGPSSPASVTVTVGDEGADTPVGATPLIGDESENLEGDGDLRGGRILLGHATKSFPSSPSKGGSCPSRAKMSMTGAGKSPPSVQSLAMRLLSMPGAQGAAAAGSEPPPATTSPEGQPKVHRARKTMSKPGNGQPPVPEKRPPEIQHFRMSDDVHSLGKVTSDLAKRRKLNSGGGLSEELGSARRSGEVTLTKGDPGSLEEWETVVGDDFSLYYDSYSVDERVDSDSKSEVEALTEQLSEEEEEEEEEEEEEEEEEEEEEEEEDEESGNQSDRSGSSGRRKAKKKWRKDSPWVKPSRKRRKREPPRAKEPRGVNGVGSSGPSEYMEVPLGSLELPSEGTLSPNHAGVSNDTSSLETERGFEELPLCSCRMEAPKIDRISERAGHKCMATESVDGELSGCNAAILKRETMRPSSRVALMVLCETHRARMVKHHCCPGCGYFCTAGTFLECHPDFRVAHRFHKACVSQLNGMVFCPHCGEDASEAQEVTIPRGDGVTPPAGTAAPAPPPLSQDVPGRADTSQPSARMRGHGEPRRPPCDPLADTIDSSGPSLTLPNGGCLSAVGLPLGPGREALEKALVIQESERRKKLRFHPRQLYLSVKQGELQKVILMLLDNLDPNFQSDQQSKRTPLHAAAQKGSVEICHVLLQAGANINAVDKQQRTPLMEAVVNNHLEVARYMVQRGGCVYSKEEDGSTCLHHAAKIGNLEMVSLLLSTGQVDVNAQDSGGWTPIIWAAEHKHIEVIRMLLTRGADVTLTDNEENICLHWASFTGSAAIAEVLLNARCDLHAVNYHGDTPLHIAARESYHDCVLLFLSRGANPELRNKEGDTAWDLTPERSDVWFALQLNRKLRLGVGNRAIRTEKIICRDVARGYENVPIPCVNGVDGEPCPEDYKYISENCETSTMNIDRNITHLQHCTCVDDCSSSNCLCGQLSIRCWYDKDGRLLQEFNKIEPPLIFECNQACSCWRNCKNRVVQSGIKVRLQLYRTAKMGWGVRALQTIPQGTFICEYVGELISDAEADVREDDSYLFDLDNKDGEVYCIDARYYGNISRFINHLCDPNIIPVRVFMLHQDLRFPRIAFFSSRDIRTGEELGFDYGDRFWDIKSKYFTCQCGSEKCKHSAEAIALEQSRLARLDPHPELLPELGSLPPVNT

Death-associated protein kinase 3 (Homo sapiens), sequence (O43293 whole entry, looked up): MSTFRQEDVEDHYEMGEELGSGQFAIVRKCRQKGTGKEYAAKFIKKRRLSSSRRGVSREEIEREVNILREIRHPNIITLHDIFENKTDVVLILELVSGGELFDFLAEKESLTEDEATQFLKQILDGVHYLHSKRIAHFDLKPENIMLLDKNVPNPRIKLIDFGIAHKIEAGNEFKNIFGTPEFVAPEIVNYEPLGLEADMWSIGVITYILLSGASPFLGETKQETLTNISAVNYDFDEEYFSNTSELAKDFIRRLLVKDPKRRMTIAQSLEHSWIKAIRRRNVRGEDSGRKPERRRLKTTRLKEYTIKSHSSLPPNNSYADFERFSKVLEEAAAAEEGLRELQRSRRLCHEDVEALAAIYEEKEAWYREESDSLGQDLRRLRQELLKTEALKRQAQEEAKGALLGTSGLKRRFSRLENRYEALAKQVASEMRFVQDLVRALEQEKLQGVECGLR
Fibroblast growth factor receptor 1, sequence (P11362 whole entry): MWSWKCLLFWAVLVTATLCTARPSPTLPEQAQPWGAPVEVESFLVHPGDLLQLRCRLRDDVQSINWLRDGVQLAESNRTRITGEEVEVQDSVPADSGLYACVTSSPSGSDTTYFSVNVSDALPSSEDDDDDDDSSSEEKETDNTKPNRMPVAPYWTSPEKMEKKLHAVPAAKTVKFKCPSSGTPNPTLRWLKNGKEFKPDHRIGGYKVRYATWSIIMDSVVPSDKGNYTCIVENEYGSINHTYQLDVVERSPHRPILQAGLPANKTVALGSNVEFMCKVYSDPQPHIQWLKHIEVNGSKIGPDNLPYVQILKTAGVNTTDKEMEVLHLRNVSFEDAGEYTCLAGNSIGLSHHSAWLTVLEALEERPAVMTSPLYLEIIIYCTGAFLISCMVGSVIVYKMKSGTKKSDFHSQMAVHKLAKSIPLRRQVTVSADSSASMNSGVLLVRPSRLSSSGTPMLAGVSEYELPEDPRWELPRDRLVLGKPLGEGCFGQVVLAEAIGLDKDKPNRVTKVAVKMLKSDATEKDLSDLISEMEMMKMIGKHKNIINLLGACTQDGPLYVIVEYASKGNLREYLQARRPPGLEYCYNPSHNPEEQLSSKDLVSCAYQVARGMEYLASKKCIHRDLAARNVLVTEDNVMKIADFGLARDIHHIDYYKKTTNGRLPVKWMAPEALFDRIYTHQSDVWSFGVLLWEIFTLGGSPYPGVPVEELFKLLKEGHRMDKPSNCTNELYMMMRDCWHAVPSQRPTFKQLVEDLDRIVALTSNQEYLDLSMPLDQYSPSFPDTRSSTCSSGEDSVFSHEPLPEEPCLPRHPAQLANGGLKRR
G protein-coupled receptor kinase 6 (Homo sapiens), sequence (P43250 whole entry, looked up): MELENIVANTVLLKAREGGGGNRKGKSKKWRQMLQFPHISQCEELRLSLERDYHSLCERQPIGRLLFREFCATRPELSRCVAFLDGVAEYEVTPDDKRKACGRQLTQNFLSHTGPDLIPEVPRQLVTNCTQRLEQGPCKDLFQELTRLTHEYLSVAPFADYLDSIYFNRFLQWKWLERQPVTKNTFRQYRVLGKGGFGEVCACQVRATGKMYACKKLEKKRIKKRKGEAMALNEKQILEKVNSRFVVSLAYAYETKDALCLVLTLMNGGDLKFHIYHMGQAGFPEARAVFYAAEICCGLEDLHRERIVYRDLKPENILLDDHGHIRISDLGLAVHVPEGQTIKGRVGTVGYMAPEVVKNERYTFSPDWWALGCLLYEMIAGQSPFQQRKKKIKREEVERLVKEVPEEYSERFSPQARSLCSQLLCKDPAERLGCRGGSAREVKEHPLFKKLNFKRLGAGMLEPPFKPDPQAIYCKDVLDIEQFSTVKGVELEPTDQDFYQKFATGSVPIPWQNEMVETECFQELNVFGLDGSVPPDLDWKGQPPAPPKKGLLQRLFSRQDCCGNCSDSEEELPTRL
Serine/threonine-protein kinase 10 (Homo sapiens), sequence (O94804 whole entry, looked up): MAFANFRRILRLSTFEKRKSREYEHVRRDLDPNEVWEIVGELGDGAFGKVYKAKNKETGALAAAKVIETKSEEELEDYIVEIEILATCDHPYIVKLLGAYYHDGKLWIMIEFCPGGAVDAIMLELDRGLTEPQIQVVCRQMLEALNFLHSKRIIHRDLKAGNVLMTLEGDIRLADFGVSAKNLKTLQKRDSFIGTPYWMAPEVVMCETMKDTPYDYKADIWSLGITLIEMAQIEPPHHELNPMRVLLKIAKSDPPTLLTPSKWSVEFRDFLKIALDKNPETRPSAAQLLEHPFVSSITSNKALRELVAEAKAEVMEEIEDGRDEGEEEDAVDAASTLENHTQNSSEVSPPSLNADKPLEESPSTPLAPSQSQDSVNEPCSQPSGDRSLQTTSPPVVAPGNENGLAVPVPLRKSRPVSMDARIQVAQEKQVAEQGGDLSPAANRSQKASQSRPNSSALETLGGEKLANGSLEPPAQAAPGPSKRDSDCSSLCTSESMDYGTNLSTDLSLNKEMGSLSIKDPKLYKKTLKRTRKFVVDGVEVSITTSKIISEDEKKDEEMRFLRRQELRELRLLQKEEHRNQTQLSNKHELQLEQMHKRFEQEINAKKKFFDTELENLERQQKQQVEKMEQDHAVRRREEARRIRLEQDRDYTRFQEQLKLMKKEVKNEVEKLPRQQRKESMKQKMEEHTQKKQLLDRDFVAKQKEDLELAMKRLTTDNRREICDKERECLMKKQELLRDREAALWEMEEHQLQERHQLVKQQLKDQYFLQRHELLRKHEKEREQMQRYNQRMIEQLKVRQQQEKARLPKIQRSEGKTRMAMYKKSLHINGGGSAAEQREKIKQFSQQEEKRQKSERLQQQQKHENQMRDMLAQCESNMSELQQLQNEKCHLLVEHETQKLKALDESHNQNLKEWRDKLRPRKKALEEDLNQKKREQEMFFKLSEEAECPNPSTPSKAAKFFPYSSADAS
Vascular endothelial growth factor receptor 3, sequence (P35916 whole entry): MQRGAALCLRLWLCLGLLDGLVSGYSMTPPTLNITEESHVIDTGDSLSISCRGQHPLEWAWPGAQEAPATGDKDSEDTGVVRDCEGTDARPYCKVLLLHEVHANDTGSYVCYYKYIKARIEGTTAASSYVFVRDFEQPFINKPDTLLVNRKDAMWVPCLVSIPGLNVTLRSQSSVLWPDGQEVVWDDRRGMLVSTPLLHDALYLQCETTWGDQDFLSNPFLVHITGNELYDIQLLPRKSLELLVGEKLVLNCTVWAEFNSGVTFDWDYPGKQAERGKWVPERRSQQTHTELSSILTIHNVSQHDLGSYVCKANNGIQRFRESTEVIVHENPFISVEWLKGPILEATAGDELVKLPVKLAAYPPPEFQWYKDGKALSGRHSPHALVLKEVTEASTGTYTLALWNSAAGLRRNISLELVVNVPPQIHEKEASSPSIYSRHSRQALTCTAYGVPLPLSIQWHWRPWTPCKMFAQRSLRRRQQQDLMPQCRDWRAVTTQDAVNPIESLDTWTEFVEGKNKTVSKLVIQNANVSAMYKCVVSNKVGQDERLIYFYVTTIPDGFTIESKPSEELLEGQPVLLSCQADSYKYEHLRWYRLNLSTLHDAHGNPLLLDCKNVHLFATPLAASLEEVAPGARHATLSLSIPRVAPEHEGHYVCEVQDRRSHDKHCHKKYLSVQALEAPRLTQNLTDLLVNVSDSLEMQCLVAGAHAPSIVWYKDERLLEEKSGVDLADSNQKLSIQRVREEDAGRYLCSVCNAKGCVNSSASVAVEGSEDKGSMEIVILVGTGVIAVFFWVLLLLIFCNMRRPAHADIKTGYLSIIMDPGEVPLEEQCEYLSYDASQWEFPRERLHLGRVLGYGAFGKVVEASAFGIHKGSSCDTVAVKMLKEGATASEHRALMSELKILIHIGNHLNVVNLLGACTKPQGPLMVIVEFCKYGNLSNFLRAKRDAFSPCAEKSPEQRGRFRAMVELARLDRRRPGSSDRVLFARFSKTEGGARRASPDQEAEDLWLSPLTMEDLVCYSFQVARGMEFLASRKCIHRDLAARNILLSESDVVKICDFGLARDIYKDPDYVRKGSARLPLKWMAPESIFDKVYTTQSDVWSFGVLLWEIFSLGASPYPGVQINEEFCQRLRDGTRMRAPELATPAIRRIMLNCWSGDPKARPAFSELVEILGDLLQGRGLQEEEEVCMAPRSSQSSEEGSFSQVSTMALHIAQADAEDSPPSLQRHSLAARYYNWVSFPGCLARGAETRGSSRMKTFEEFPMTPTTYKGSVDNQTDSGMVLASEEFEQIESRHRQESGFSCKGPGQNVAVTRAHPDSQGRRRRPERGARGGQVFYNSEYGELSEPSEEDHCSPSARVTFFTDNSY
Myosin light chain kinase 2, skeletal/cardiac muscle (Homo sapiens), sequence (Q9H1R3 whole entry): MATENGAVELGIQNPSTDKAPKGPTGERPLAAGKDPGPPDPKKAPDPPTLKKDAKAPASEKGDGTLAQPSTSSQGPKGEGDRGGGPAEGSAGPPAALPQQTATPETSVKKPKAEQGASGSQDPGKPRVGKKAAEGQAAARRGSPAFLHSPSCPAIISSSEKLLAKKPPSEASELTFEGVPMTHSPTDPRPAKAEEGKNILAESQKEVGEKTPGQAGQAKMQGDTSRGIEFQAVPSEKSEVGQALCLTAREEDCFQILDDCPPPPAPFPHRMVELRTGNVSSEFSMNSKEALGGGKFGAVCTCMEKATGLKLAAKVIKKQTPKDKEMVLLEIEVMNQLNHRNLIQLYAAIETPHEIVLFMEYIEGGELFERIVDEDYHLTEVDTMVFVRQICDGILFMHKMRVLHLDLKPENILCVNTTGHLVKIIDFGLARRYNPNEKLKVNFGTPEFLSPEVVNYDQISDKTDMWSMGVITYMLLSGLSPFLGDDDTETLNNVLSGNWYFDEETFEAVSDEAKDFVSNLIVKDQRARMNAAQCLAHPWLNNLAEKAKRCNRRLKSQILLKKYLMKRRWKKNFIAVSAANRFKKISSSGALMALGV

Structure (SMILES): Cc1cc([C@@H](C)Nc2ccccc2C(=O)O)c2nc(N3CCOCC3)cc(=O)n2c1 [AZD-6482]
- % of control [1]: 100%

- % of inhibition [2]: -0.407%
- % of inhibition [3]: -34.8%
Structure (SMILES): CC[C@@H]1[C@H](F)C(=O)N[C@@H]1COc1nccc2cc(C(N)=O)c(OC)cc12 [ZIMLOVISERTIB]

- IC50 [4]: > 10 µM
Structure (SMILES): CCc1cccc(CC)c1NC(=O)c1nn(C)c2c1CCc1cnc(Nc3ccc(C(=O)NC4CCN(C)CC4)cc3OC(F)(F)F)nc1-2

Structure (SMILES): COc1cc(N(C)c2ccnc3ccc(C(F)(F)F)cc23)cc(OC)c1OC
- % binding [5]: 0%

Structure (SMILES): CCC(=O)N1CCN(c2ccc(-n3c(=O)ccc4cnc5ccc(-c6cnc7ccccc7c6)cc5c43)cc2C(F)(F)F)CC1
- % of control [6]: 74%

Structure (SMILES): CN(C)CCOc1ccc(-c2nc(-c3ccncc3)c(-c3ccc4c(c3)CC/C4=N\O)[nH]2)cc1
- % of control [7]: 89%

Structure (SMILES): N#Cc1cccc(-c2c[nH]c3ncnc(N4CCOCC4)c23)c1
- % of inhibition [8]: 5%

Structure (SMILES): CNC(=O)Nc1ccc(-c2nc(N3CC4CCC(C3)O4)c3cnn(C4CCC5(CC4)OCCO5)c3n2)cc1
- % of inhibition [9]: -1%

Structure (SMILES): COCCN1CCC(c2cc(CN(C)C(=O)c3cccc(Oc4ccccc4)c3)ccn2)CC1
- % activity ([10]; at 1 µM): > 95%
- % activity ([10]; at 10 µM): > 90%
